The subject of series [1] is Hepatotoxicity.
The test system of series [2] is Hepatotoxicity. The source holds these as a separate data set.
Series [3] concerns Hepatotoxicity. This is another data set of the same source.
The subject of series [4] is Hepatotoxicity. This is another data set of the same source.
Series [5] has as its system Hepatotoxicity. The source holds these as a separate data set.
The subject of series [6] is Hepatotoxicity. This is another data set of the same source.
In series [7] the test system is Hepatotoxicity. The source holds these as a separate data set.
Series [8] concerns Hepatotoxicity. The source holds these as a separate data set.
The subject of series [9] is Hepatotoxicity. This is another data set of the same source.
Series [10] concerns Hepatotoxicity. The source holds these as a separate data set.
Series [11] deals with Hepatotoxicity. This is another data set of the same source.
The subject of series [12] is Hepatotoxicity. The source holds these as a separate data set.
Series [13] relates to Hepatotoxicity. This is another data set of the same source.
For series [14], the system named is Hepatotoxicity. This is another data set of the same source.
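Throughout, for HepSE Combined Scores: combined hepatic side effect score as listed in the training data of the Drug Induced Liver Injury Prediction System (DILIps).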
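Throughout, for HepSE bilirubinemia: bilirubinemia hepatic side effect score drawn from the DILIps training data, a prediction system for drug-induced liver injury; call rule not given here.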
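Throughout, for HepSE cholecystitis: Cholecystitis-related hepatic side effect score drawn from the DILIps (drug-induced liver injury prediction) training data set; call rule not given here.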
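Throughout, for HepSE cholelithiasis: hepatic side effect score for cholelithiasis, drawn from the DILIps training data for predicting drug-induced liver injury; call rule not given here.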
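Throughout, for HepSE cirrhosis: cirrhosis hepatic side effect score taken from the DILIps (drug-induced liver injury prediction) training set; call rule not given here.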
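Throughout, for HepSE elevated liver function tests: hepatic side effect score for raised liver function tests, as recorded in the DILIps training set used for predicting drug-induced liver injury.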
Throughout, for HepSE hepatic failure: call rule not given here.
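Throughout, for HepSE hepatic necrosis: score of hepatic side effects for hepatic necrosis, drawn from the training data of DILIps, a prediction system for drug-induced liver injury; call rule not given here.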
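Throughout, for HepSE hepatitis: Hepatitis-related hepatic side effect score taken from the training data of DILIps, a prediction system for drug-induced liver injury; call rule not given here.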
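Throughout, for HepSE hepatomegaly: hepatic side effect score for hepatomegaly, taken from the training set of the DILIps drug-induced liver injury prediction system; call rule not given here.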
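Throughout, for HepSE jaundice: Jaundice-related hepatic side-effect score drawn from the training data of the DILIps (drug-induced liver injury prediction system); call rule not given here.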
Throughout, for HepSE liver disease: call rule not given here.
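Throughout, for HepSE liver fatty: hepatic side effect score for fatty liver, taken from the DILIps training set for predicting drug-induced liver injury; call rule not given here.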
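Throughout, for HepSE liver function tests abnormal: hepatic side effect score taken from the DILIps (drug-induced liver injury prediction system) training data, here covering abnormal liver function test findings.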

`Nc1ccn([C@@H]2CS[C@H](CO)O2)c(=O)n1` [LAMIVUDINE] displayed a HepSE_cirrhosis in the series on Hepatotoxicity [1] of 0. Moreover, the HepSE_cholelithiasis in the series on Hepatotoxicity [2] turned out to be 0. Further, the “HepSE_Combined Scores” value with Hepatotoxicity [3] came out at 3. This molecule registered a HepSE_hepatic failure in the series on Hepatotoxicity [4] of 0. The HepSE_hepatic necrosis in the series on Hepatotoxicity [5] is listed as 0. Further, the HepSE_cholecystitis with Hepatotoxicity [6] was 0. In addition, the HepSE_bilirubinemia in the series with Hepatotoxicity [7] is recorded as 0. In addition, in the series on Hepatotoxicity [8], the HepSE_hepatitis is on record as 0. Further, the HepSE_liver fatty in the series on Hepatotoxicity [9] was found to be 1. This molecule also showed a HepSE_jaundice in the series with Hepatotoxicity [10] of 1. In addition, in the series with Hepatotoxicity [11], the “HepSE_elevated liver function tests” value is 0. In the series with Hepatotoxicity [12], the “HepSE_liver function tests abnormal” value was 0. The molecule also returned a HepSE_hepatomegaly in the series on Hepatotoxicity [13] of 1. This molecule also gave a HepSE_liver disease in the series with Hepatotoxicity [14] of 0.

On to `C#C[C@]1(O)CC[C@H]2[C@@H]3CCC4=CC(=O)CC[C@@H]4[C@H]3CC[C@@]21CC` [LEVONORGESTREL], for which, in the series with Hepatotoxicity [1] (Liver), the HepSE_cirrhosis came to 0. Moreover, in the series on Hepatotoxicity [2] (Liver), the HepSE_cholelithiasis came out at 0. Further, the “HepSE_Combined Scores” value in the series on Hepatotoxicity [3] (Liver) was 0. In the series with Hepatotoxicity [4] (Liver), this molecule returned a HepSE_hepatic failure of 0. Besides, in the series on Hepatotoxicity [5] (Liver), the HepSE_hepatic necrosis is 0. This molecule showed a HepSE_cholecystitis in the series on Hepatotoxicity [6] (Liver) of 0. Further, in the series on Hepatotoxicity [7] (Liver), the HepSE_bilirubinemia is reported as 0. In the series with Hepatotoxicity [8] (Liver), the HepSE_hepatitis came out at 0. In the series with Hepatotoxicity [9] (Liver), this molecule displayed a HepSE_liver fatty of 0. Further, in the series on Hepatotoxicity [10] (Liver), the HepSE_jaundice was found to be 0. Moreover, in the series on Hepatotoxicity [11] (Liver), the “HepSE_elevated liver function tests” value was 0. For the same molecule, the “HepSE_liver function tests abnormal” value in the series on Hepatotoxicity [12] (Liver) is given as 0. Further, the HepSE_hepatomegaly with Hepatotoxicity [13] (Liver) is 0. For the same molecule, in the series with Hepatotoxicity [14] (Liver), the HepSE_liver disease is 0.

Regarding `C[C@@H](c1ncncc1F)[C@](O)(Cn1cncn1)c1ccc(F)cc1F` [VORICONAZOLE], the HepSE_cirrhosis in the series with Hepatotoxicity [1] worked out at 0. Also, in the series with Hepatotoxicity [2], the HepSE_cholelithiasis amounted to 1. Moreover, the “HepSE_Combined Scores” value in the series with Hepatotoxicity [3] is on record as 10. Moreover, in the series on Hepatotoxicity [4], the HepSE_hepatic failure was 1. In the series with Hepatotoxicity [5], this molecule showed a HepSE_hepatic necrosis of 0. This molecule also had a HepSE_cholecystitis in the series on Hepatotoxicity [6] of 1. The HepSE_bilirubinemia with Hepatotoxicity [7] is on record as 1. For the same molecule, the HepSE_hepatitis in the series on Hepatotoxicity [8] turned out to be 1. Further, the HepSE_liver fatty in the series on Hepatotoxicity [9] worked out at 0. Further, the HepSE_jaundice in the series with Hepatotoxicity [10] is 1. Also, the “HepSE_elevated liver function tests” value in the series on Hepatotoxicity [11] came to 1. Further, in the series with Hepatotoxicity [12], the “HepSE_liver function tests abnormal” value is on record as 1. In the series on Hepatotoxicity [13], this molecule came in with a HepSE_hepatomegaly of 1. Moreover, in the series with Hepatotoxicity [14], the HepSE_liver disease was 1.

In turn, `Nc1nc2[nH]cc(CCc3ccc(C(=O)N[C@@H](CCC(=O)O)C(=O)O)cc3)c2c(=O)[nH]1` [PEMETREXED] displayed a HepSE_cirrhosis in the series with Hepatotoxicity [1] of 0. This molecule had a HepSE_cholelithiasis with Hepatotoxicity [2] of 0. For the same molecule, in the series on Hepatotoxicity [3], the “HepSE_Combined Scores” value turned out to be 0. In the series on Hepatotoxicity [4], this molecule came in with a HepSE_hepatic failure of 0. The HepSE_hepatic necrosis with Hepatotoxicity [5] turned out to be 0. This molecule returned a HepSE_cholecystitis with Hepatotoxicity [6] of 0. Further, in the series with Hepatotoxicity [7], the HepSE_bilirubinemia worked out at 0. The HepSE_hepatitis in the series with Hepatotoxicity [8] is reported as 0. The molecule also displayed a HepSE_liver fatty in the series with Hepatotoxicity [9] of 0. Also, the HepSE_jaundice in the series on Hepatotoxicity [10] is 0. Further, the “HepSE_elevated liver function tests” value in the series with Hepatotoxicity [11] is on record as 0. Also, in the series on Hepatotoxicity [12], the “HepSE_liver function tests abnormal” value is 0. In the series with Hepatotoxicity [13], this molecule had a HepSE_hepatomegaly of 0. Besides, in the series on Hepatotoxicity [14], the HepSE_liver disease worked out at 0.

The molecule `CCCC(C)(COC(N)=O)COC(=O)NC(C)C` (stereo not given) [CARISOPRODOL] displayed a HepSE_cirrhosis in the series with Hepatotoxicity [1] of 0. In the series with Hepatotoxicity [2], this molecule gave a HepSE_cholelithiasis of 0. Further, in the series with Hepatotoxicity [3], the “HepSE_Combined Scores” value worked out at 0. In the series on Hepatotoxicity [4], this molecule showed a HepSE_hepatic failure of 0. Also, the HepSE_hepatic necrosis with Hepatotoxicity [5] was 0. The molecule further displayed a HepSE_cholecystitis with Hepatotoxicity [6] of 0. Further, the HepSE_bilirubinemia in the series with Hepatotoxicity [7] was 0. Besides, the HepSE_hepatitis in the series on Hepatotoxicity [8] came to 0. The same molecule showed a HepSE_liver fatty with Hepatotoxicity [9] of 0. This molecule displayed a HepSE_jaundice in the series with Hepatotoxicity [10] of 0. For the same molecule, in the series with Hepatotoxicity [11], the “HepSE_elevated liver function tests” value is 0. Moreover, in the series on Hepatotoxicity [12], the “HepSE_liver function tests abnormal” value is 0. For the same molecule, the HepSE_hepatomegaly in the series with Hepatotoxicity [13] was found to be 0. For the same molecule, in the series on Hepatotoxicity [14], the HepSE_liver disease is reported as 0.

For the molecule `CC(C)NCC(O)c1ccc(O)c(O)c1` (stereo not given) [ISOPROTERENOL], the HepSE_cirrhosis with Hepatotoxicity [1] (Liver) is listed as 0. Further, the HepSE_cholelithiasis with Hepatotoxicity [2] (Liver) was 0. In addition, in the series with Hepatotoxicity [3] (Liver), the “HepSE_Combined Scores” value is listed as 0. In addition, the HepSE_hepatic failure in the series on Hepatotoxicity [4] (Liver) turned out to be 0. In the series on Hepatotoxicity [5] (Liver), this molecule displayed a HepSE_hepatic necrosis of 0. Further, the HepSE_cholecystitis with Hepatotoxicity [6] (Liver) worked out at 0. The molecule further showed a HepSE_bilirubinemia in the series with Hepatotoxicity [7] (Liver) of 0. The HepSE_hepatitis in the series with Hepatotoxicity [8] (Liver) is reported as 0. In the series with Hepatotoxicity [9] (Liver), this molecule gave a HepSE_liver fatty of 0. In the series on Hepatotoxicity [10] (Liver), this molecule showed a HepSE_jaundice of 0. Also, the “HepSE_elevated liver function tests” value with Hepatotoxicity [11] (Liver) is 0. Further, in the series on Hepatotoxicity [12] (Liver), the “HepSE_liver function tests abnormal” value is reported as 0. For the same molecule, in the series on Hepatotoxicity [13] (Liver), the HepSE_hepatomegaly is 0. In the series with Hepatotoxicity [14] (Liver), this molecule had a HepSE_liver disease of 0.

With `CCC1=C(C)CN(C(=O)NCCc2ccc(S(=O)(=O)NC(=O)N[C@H]3CC[C@H](C)CC3)cc2)C1=O` [GLIMEPIRIDE], the HepSE_cirrhosis in the series with Hepatotoxicity [1] worked out at 0. In the series with Hepatotoxicity [2], this molecule displayed a HepSE_cholelithiasis of 0. Further, the “HepSE_Combined Scores” value with Hepatotoxicity [3] worked out at 3. For the same molecule, in the series on Hepatotoxicity [4], the HepSE_hepatic failure stood at 1. This molecule also registered a HepSE_hepatic necrosis in the series with Hepatotoxicity [5] of 0. For the same molecule, the HepSE_cholecystitis with Hepatotoxicity [6] worked out at 0. In the series with Hepatotoxicity [7], the HepSE_bilirubinemia stood at 0. The molecule also yielded a HepSE_hepatitis in the series with Hepatotoxicity [8] of 1. For the same molecule, in the series on Hepatotoxicity [9], the HepSE_liver fatty worked out at 0. The molecule also gave a HepSE_jaundice in the series on Hepatotoxicity [10] of 1. Further, the “HepSE_elevated liver function tests” value with Hepatotoxicity [11] was found to be 0. The “HepSE_liver function tests abnormal” value in the series with Hepatotoxicity [12] stood at 0. Moreover, in the series on Hepatotoxicity [13], the HepSE_hepatomegaly is on record as 0. For the same molecule, in the series on Hepatotoxicity [14], the HepSE_liver disease is 0.

On to `COCCc1ccc(OCC(O)CNC(C)C)cc1` (stereo not given) [METOPROLOL], for which the HepSE_cirrhosis in the series with Hepatotoxicity [1] is recorded as 0. The same molecule had a HepSE_cholelithiasis in the series with Hepatotoxicity [2] of 0. Also, the “HepSE_Combined Scores” value in the series on Hepatotoxicity [3] was determined as 2. Also, in the series with Hepatotoxicity [4], the HepSE_hepatic failure was 0. The HepSE_hepatic necrosis with Hepatotoxicity [5] is reported as 0. Besides, the HepSE_cholecystitis in the series on Hepatotoxicity [6] amounted to 0. The HepSE_bilirubinemia in the series with Hepatotoxicity [7] is 0. The HepSE_hepatitis in the series with Hepatotoxicity [8] is recorded as 1. This molecule registered a HepSE_liver fatty in the series with Hepatotoxicity [9] of 0. This molecule gave a HepSE_jaundice in the series on Hepatotoxicity [10] of 1. Also, the “HepSE_elevated liver function tests” value in the series on Hepatotoxicity [11] is 0. Besides, the “HepSE_liver function tests abnormal” value in the series with Hepatotoxicity [12] worked out at 0. Further, the HepSE_hepatomegaly in the series on Hepatotoxicity [13] was determined as 0. The HepSE_liver disease in the series with Hepatotoxicity [14] worked out at 0.

In the series with Hepatotoxicity [1], `CN(C)c1ccc(O)c2c1C[C@H]1C[C@H]3[C@H](N(C)C)C(O)=C(C(N)=O)C(=O)[C@@]3(O)C(O)=C1C2=O` [MINOCYCLINE] showed a HepSE_cirrhosis of 0. The molecule also displayed a HepSE_cholelithiasis in the series on Hepatotoxicity [2] of 0. In the series with Hepatotoxicity [3], the “HepSE_Combined Scores” value is listed as 4. This molecule showed a HepSE_hepatic failure in the series on Hepatotoxicity [4] of 1. The HepSE_hepatic necrosis in the series on Hepatotoxicity [5] is listed as 0. The molecule also gave a HepSE_cholecystitis in the series on Hepatotoxicity [6] of 0. The molecule further had a HepSE_bilirubinemia in the series with Hepatotoxicity [7] of 1. This molecule also came in with a HepSE_hepatitis in the series with Hepatotoxicity [8] of 1. The molecule also showed a HepSE_liver fatty in the series with Hepatotoxicity [9] of 0. Moreover, in the series on Hepatotoxicity [10], the HepSE_jaundice is reported as 1. In addition, the “HepSE_elevated liver function tests” value in the series with Hepatotoxicity [11] is 0. Moreover, the “HepSE_liver function tests abnormal” value in the series with Hepatotoxicity [12] is on record as 0. In addition, the HepSE_hepatomegaly in the series on Hepatotoxicity [13] stood at 0. The molecule further gave a HepSE_liver disease in the series with Hepatotoxicity [14] of 0.

For CARBOPLATIN, the HepSE_cirrhosis in the series with Hepatotoxicity [1] turned out to be 0. For the same molecule, in the series on Hepatotoxicity [2], the HepSE_cholelithiasis was 0. The “HepSE_Combined Scores” value with Hepatotoxicity [3] amounted to 1. For the same molecule, in the series with Hepatotoxicity [4], the HepSE_hepatic failure amounted to 0. Moreover, in the series with Hepatotoxicity [5], the HepSE_hepatic necrosis is reported as 0. The molecule further gave a HepSE_cholecystitis in the series with Hepatotoxicity [6] of 0. This molecule had a HepSE_bilirubinemia in the series with Hepatotoxicity [7] of 0. In addition, in the series with Hepatotoxicity [8], the HepSE_hepatitis is 0. The same molecule showed a HepSE_liver fatty with Hepatotoxicity [9] of 0. Also, the HepSE_jaundice in the series with Hepatotoxicity [10] is given as 0. Also, the “HepSE_elevated liver function tests” value in the series with Hepatotoxicity [11] was determined as 0. For the same molecule, the “HepSE_liver function tests abnormal” value with Hepatotoxicity [12] turned out to be 1. The molecule further came in with a HepSE_hepatomegaly with Hepatotoxicity [13] of 0. In the series with Hepatotoxicity [14], this molecule registered a HepSE_liver disease of 0.

Values taken from ChEMBL document CHEMBL1909294, “Translating clinical findings into knowledge in drug safety evaluation--drug induced liver injury prediction system (DILIps)” (PLoS Comput Biol, 2011).
